The test system of one test is HPAC cells. Kind of test: HPAC 3D proliferation assay (CellTiter-Glo). It counts as cell-based. The conditions noted are these: 3D culture, 7 days, read-out: HPAC CTG IC50. The method, then: (§1) SW620 and HPAC 3D proliferation assays.
(§2) Compound potencies were assessed in proliferation assays conducted with SW620 and HPAC cell lines grown in 3D cultures. Cells were seeded into 96- or 384-well ultra-low attachment plates at 3000 or 1000 cells/well, respectively, in culture medium (RPMI-1640, 10% FBS, 2 mM L-glutamine). The plated cells were centrifuged briefly, allowed to rest for 30 minutes under ambient conditions, and cultured overnight at 37° C./5% CO2 to initiate the formation of spheroids. Compound dilutions were prepared across a range of concentrations in DMSO and added to the appropriate wells of the assay plates with a 333-fold dilution into the culture medium. The plates were further incubated for 7 days. The quantity of viable cells was assessed using CellTiter-Glo 3D Cell Viability Assay (Promega). The detection reagent penetrates the spheroids and lyses the cells. The released ATP that was detected with luciferase and a luciferase substrate to generate a luminescent readout. […] The data points were fit to a 4-parameter logistic equation to determine IC50 values.

In another test the test system is SW620 cells. Kind of test: SW620 3D proliferation assay (CellTiter-Glo). Conditions: SW620, 3D culture, 7 days, read-out: SW620 CTG IC50. Format: cell-based. The method, then:
as §1, §2

Test [1] addresses recombinant human KRAS wild type (SOS1-mediated nucleotide exchange) (Homo sapiens (Human), UniProt P01116). Kind of test: KRAS biochemical assay, BODIPY-GDP exchange TR-FRET (WT-GDP HTRF). The method, then:
[Worded in the source for another variant; this variant is reported under the same test.] KRAS Biochemical Assay—BODIPY-GDP Exchange TR-FRET.
Biochemical compound potencies were assessed by evaluating inhibition of SOS1-mediated nucleotide exchange in KRAS G12D. The SOS1-promoted exchange of fluorescently-labeled GDP (BOPIDY-GDP) was monitored by time-resolved fluorescence resonance energy transfer (TR-FRET). Compounds solubilized in DMSO were dispensed as concentration series into 384-well white assay plates. […] The reaction was initiated with the addition of 5 μL of 3 nM recombinant human SOS1 and 300 nM BODIPY-GDP in assay buffer. After a 60-minute incubation, the fluorescence was measured with excitation at 337 nm and emission at 490 and 520 nm. The TR-FRET ratio was determined as the fluorescence at 520 nm divided by the fluorescence at 490 nm multiplied by 10,000. […] The normalized TR-FRET results were plotted against compound concentration, and the data fit to a 4-parameter Hill equation to determine the IC50 values.

Test [2] addresses recombinant human mutant KRas G12V (SOS1-mediated nucleotide exchange) (Homo sapiens (Human), UniProt P01116, G12V). Kind of test: KRAS biochemical assay, BODIPY-GDP exchange TR-FRET (G12V-GDP HTRF).
In a further test the test system is SW620 PERK. As to the kind of experiment: SW620 PERK assay. Format: cell-based.
A further test relates to H1975 cells. As to the kind of experiment: H1975 CTG proliferation assay. Format: cell-based.
[3] abbreviates: Homo sapiens, SW-620, SW620, PERK.
Where [4] appears, read: Homo sapiens, NCI-H1975, H1975, CTG.

The values below come from patent US20240228512A1, “ACYCLIC OXAZEPINE COMPOUNDS COMPRISING A 6-AZA MOIETY AND USES THEREOF” (Genentech, Inc., priority 2022, published 2024).

Like-named read-outs stand apart in the source and are kept apart here.

Chain of recombinant human mutant KRas G12V (SOS1-mediated nucleotide exchange) (P01116-2 other isoform, or with tags, fused parts or gaps G12V): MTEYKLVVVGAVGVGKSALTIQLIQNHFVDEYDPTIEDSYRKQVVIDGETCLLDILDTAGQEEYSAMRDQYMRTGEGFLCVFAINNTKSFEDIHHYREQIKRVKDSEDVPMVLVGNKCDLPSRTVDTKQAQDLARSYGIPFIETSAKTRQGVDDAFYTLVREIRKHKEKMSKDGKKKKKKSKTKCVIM
Chain of recombinant human KRAS wild type (SOS1-mediated nucleotide exchange) (P01116-2 other isoform, or with tags, fused parts or gaps): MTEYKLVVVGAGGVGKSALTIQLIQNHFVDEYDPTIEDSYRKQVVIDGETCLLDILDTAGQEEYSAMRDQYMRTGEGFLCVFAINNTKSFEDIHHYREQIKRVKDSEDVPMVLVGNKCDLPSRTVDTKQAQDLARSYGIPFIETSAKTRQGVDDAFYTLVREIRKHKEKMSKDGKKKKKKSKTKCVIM

As to `C[C@H](c1cccnc1N)N1CCOc2nc(-c3c(C(F)(F)F)ccc(N)c3Cl)c(F)c3nc(OC[C@@]45CCCN4C[C@H](F)C5)nc1c23` (atropisomer, axis not shown; (aS)) [Example 622a, 3-((R)-1-((R)-5-(3-amino-2-chloro-6-(trifluoromethyl)phenyl)-4-fluoro-2-(((2R,7aS)-2-fluorotetrahydro-1H-pyrrolizin-7a(5H)-yl)methoxy)-8,9-dihydro-10H-7-oxa-1,3,6,10-tetraazacyclohepta[de]naphthalen-10-yl)ethyl)pyridin-2-amine], the concentration for half-maximal inhibition (IC50) came out at 39.6 nM with HPAC cells (Homo sapiens, 168 h); 5.1 nM with SW620 cells (Homo sapiens, SW-620, 168 h); 0.572 nM in test [1]; 0.19 nM in test [2]; 3.2 nM in the test with SW620 PERK (setting [3]); 766 nM in the test on H1975 cells (setting [4]).
With `Cc1cc(N)c(Cl)c(-c2nc3c4c(nc(OC[C@@]56CCCN5C[C@H](F)C6)nc4c2F)N([C@H](C)c2cccnc2N)CCO3)c1C(F)(F)F` (single isomer, unassigned) [Example 21a], the half-maximal inhibitory concentration (IC50) in the test with HPAC cells came out at 103 nM; with SW620 cells it was 6.87 nM; in test [1], 2.93 nM; in test [2], 1.9 nM; in the test with SW620 PERK (SW620, PERK), 33.1 nM; with H1975 cells (H1975, CTG) it was 180 nM.
Take `Cc1nc(N)c(Cl)c(-c2nc3c4c(nc(OC[C@@]56CCCN5C[C@H](F)C6)nc4c2F)N([C@H](C)c2cccnc2N)CCO3)c1C(F)(F)F` (single isomer, unassigned) [Example 601a]: the IC50 with SW620 cells (Homo sapiens, SW-620, 168 h) turned out to be 6.14 nM; in test [1] it was 0.255 nM; in test [2] it was 0.07 nM; in the test on H1975 cells (setting [4]) it was 47.6 nM.
Consider `C[C@H](c1cccnc1N)N1CCOc2nc(-c3c(C(F)(F)F)ccc(N)c3Cl)c(F)c3nc(OC[C@@]45CCCN4C[C@H](F)C5)nc1c23` (single isomer, unassigned) [Example 622b], for which the IC50 in the test on HPAC cells (Homo sapiens, 168 h) amounted to 123 nM; in the test with SW620 cells (Homo sapiens, SW-620, 168 h) it was 22.8 nM; in test [1], 5.5 nM; in test [2] it was 2.3 nM; with SW620 PERK (setting [3]), 29.6 nM; with H1975 cells (setting [4]), 2610 nM.
In the case of `Cc1c(F)c(N)c(F)c(-c2nc3c4c(nc(OC[C@@]56CCCN5C[C@H](F)C6)nc4c2Cl)N([C@H](C)c2cccnc2N)CCO3)c1C(F)(F)F` (single isomer, unassigned) [Example 629b], the IC50 in the test with HPAC cells (Homo sapiens, 168 h) came to 682 nM; with SW620 cells (Homo sapiens, SW-620, 168 h), 74.2 nM; in test [1], 12.3 nM; in test [2] it was 4.8 nM; in the test with SW620 PERK (setting [3]) it was 105 nM; in the test with H1975 cells (setting [4]), 426 nM.
Consider `Cc1cc(N)cc(-c2nc3c4c(nc(OC[C@@]56CCCN5C[C@H](F)C6)nc4c2F)N([C@H](C)c2cccnc2N)CCO3)c1C(F)(F)F` [Example 3, 3-((R)-1-(5-(5-amino-3-methyl-2-(trifluoromethyl)phenyl)-4-fluoro-2-(((2R,7aS)-2-fluorotetrahydro-1H-pyrrolizin-7a(5H)-yl)methoxy)-8,9-dihydro-10H-7-oxa-1,3,6,10-tetraazacyclohepta[de]naphthalen-10-yl)ethyl)pyridin-2-amine], for which the IC50 with HPAC cells (Homo sapiens, 168 h) was 8.79 nM; in the test on SW620 cells (Homo sapiens, SW-620, 168 h), 1.15 nM; in test [1], 0.104 nM; in test [2], 0.08 nM; in the test on SW620 PERK (setting [3]), 0.59 nM; in the test with H1975 cells (setting [4]), 9.54 nM.
For `C#Cc1cccc2cncc(-c3nc4c5c(nc(OC[C@@]67CCCN6C[C@H](F)C7)nc5c3F)N([C@H](C)c3cccnc3N)CCO4)c12` [Example 18, 3-((R)-1-(5-(5-ethynylisoquinolin-4-yl)-4-fluoro-2-(((2R,7aS)-2-fluorotetrahydro-1H-pyrrolizin-7a(5H)-yl)methoxy)-8,9-dihydro-10H-7-oxa-1,3,6,10-tetraazacyclohepta[de]naphthalen-10-yl)ethyl)pyridin-2-amine], the IC50 was found to be 56.1 nM in the test with HPAC cells (Homo sapiens, 168 h); 13 nM in the test with SW620 cells (Homo sapiens, SW-620, 168 h); 0.33 nM in test [1]; 0.24 nM in test [2]; 5.44 nM in the test with SW620 PERK (setting [3]); 5.54 nM with H1975 cells (setting [4]).
As for `C[C@H](c1cccnc1N)N1CCOc2nc(-c3cncc4cccc(Cl)c34)c(F)c3nc(OC[C@@]45CCCN4C[C@H](F)C5)nc1c23` [Example 19, 3-((R)-1-(5-(5-chloroisoquinolin-4-yl)-4-fluoro-2-(((2R,7aS)-2-fluorotetrahydro-1H-pyrrolizin-7a(5H)-yl)methoxy)-8,9-dihydro-10H-7-oxa-1,3,6,10-tetraazacyclohepta[de]naphthalen-10-yl)ethyl)pyridin-2-amine], the half-inhibitory concentration (IC50) in test [1] is 6.93 nM; in test [2] it was 0.85 nM; in the test with SW620 PERK (setting [3]) it was 112 nM.
`C#Cc1cccc2cc(N)cc(-c3nc4c5c(nc(OC[C@@]67CCCN6C[C@H](F)C7)nc5c3F)N([C@H](C)c3nccnc3N)CCO4)c12` [Example 29, 3-((R)-1-(5-(3-Amino-8-ethynyinaphthalen-1-yl)-4-fluoro-2-(((2R,7aS)-2-fluorotetrahydro-1H-pyrrolizin-7a(5H)-yl)methoxy)-8,9-dihydro-10H-7-oxa-1,3,6,10-tetraazacyclohepta[de]naphthalen-10-yl)ethyl)pyrazin-2-amine]: the IC50 in the test with HPAC cells (Homo sapiens, 168 h) is 4.51 nM; with SW620 cells (Homo sapiens, SW-620, 168 h) it was 1.64 nM; in test [1], 0.15 nM; in test [2], 0.09 nM; in the test with SW620 PERK (setting [3]), 0.66 nM; with H1975 cells (setting [4]), 2.59 nM.
With `C#Cc1cccc2nc(N)cc(-c3nc4c5c(nc(OC[C@@]67CCCN6C[C@H](F)C7)nc5c3F)N([C@H](C)c3cccnc3N)CCO4)c12` [Example 30, 4-(10-((R)-1-(2-aminopyridin-3-yl)ethyl)-4-fluoro-2-(((2R,7aS)-2-fluorotetrahydro-1H-pyrrolizin-7a(5H)-yl)methoxy)-9,10-dihydro-8H-7-oxa-1,3,6,10-tetraazacyclohepta[de]naphthalen-5-yl)-5-ethynylquinolin-2-amine], the IC50 in the test on HPAC cells (Homo sapiens, 168 h) was 15.8 nM; in the test on SW620 cells (Homo sapiens, SW-620, 168 h), 2.67 nM; in test [1], 0.114 nM; in test [2], 0.06 nM; in the test with SW620 PERK (setting [3]) it was 2.65 nM; with H1975 cells (setting [4]), 2.59 nM.
For `Cc1c(F)c(N)cc(-c2nc3c4c(nc(OC[C@@]56CCCN5C[C@]5(CC5(F)F)C6)nc4c2F)N([C@H](C)c2cccnc2N)CCO3)c1C(F)(F)F` [Example 31, 3-((R)-1-(5-(5-amino-4-fluoro-3-methyl-2-(trifluoromethyl)phenyl)-2-(((1R,7a'S)-2,2-difluorodihydro-1′H,3′H-spiro[cyclopropane-1,2′-pyrrolizin]-7a′(5′H)-yl)methoxy)-4-fluoro-8,9-dihydro-10H-7-oxa-1,3,6,10-tetraazacyclohepta[de]naphthalen-10-yl)ethyl)pyridin-2-amine], the IC50 was found to be 156 nM in the test with HPAC cells (Homo sapiens, 168 h); 16.2 nM in the test on SW620 cells (Homo sapiens, SW-620, 168 h); 0.419 nM in test [1]; 0.27 nM in test [2]; 26.8 nM in the test on SW620 PERK (setting [3]); 17.9 nM with H1975 cells (setting [4]).
Take `C[C@H](c1cccnc1N)N1CCOc2nc(-c3cc(N)nc4ccccc34)c(F)c3nc(OC[C@@]45CCCN4C[C@H](F)C5)nc1c23` [Example 602, 4-(10-((R)-1-(2-aminopyridin-3-yl)ethyl)-4-fluoro-2-(((2R,7aS)-2-fluorotetrahydro-1H-pyrrolizin-7a(5H)-yl)methoxy)-9,10-dihydro-8H-7-oxa-1,3,6,10-tetraazacyclohepta[de]naphthalen-5-yl)quinolin-2-amine]: the IC50 is over 2000 nM in the test with HPAC cells (Homo sapiens, 168 h); 1950 nM with SW620 cells (Homo sapiens, SW-620, 168 h); 22.6 nM in test [1]; 2.2 nM in test [2]; 629 nM in the test with SW620 PERK (setting [3]); 296 nM in the test with H1975 cells (setting [4]).
